Data reported in US10399940B2, “Substituted pyrrolidines and methods of use” (AbbVie S.à.r.l., priority 2016, dated 2019).
Like-named read-outs stand apart in the source and are kept apart here.

Molecular target: T1, F508delCFTR (Homo sapiens, UniProt P13569, DEL508-508)
T1 construct: expressed in transfected cells; host or cells: CFBE41o- (human lung derived epithelial cell line), doxycycline-inducible expression
Assay: Cell Surface Expression-Horse Radish Peroxidase (CSE-HRP) assay
Assay type: cell-based
Settings: CFBE41o-F508delCFTR-HRP cells; for Maximum % activity (with co-corrector): with co-corrector (2 μM); for Maximum % activity (with co-corrector) / Maximum % activity (without co-corrector): normalized to on-plate positive control, highest concentration 20 μM
Procedure, shortened: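 Surface F508delCFTR-HRP was read by luminol luminescence after 18–24 h compound exposure at 33 °C, without or with 2 μM co-corrector. Doses were eight 3-fold steps from 20 μM, in doxycycline-induced (0.5 μg/mL, 72 h) CFBE41o- cells. % activity was scaled to the on-plate 2 μM positive control minus DMSO; EC50 came from a variable-slope sigmoid fit.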

[1] = test compound without co-corrector, 18-24 hours at 33° C., read-out: EC50 (without co-corrector)
[2] = with co-corrector (2 μM of 3-[(2R,4R)-4-({[1-(2,2-difluoro-1,3-benzodioxol-5-yl)cyclopropyl]carbonyl}amino)-7-methoxy-3,4-dihydro-2H-chromen-2-yl]benzoic acid), read-out: EC50 (with co-corrector)

T1 sequence (P13569 with tags, fused parts or gaps DEL508-508): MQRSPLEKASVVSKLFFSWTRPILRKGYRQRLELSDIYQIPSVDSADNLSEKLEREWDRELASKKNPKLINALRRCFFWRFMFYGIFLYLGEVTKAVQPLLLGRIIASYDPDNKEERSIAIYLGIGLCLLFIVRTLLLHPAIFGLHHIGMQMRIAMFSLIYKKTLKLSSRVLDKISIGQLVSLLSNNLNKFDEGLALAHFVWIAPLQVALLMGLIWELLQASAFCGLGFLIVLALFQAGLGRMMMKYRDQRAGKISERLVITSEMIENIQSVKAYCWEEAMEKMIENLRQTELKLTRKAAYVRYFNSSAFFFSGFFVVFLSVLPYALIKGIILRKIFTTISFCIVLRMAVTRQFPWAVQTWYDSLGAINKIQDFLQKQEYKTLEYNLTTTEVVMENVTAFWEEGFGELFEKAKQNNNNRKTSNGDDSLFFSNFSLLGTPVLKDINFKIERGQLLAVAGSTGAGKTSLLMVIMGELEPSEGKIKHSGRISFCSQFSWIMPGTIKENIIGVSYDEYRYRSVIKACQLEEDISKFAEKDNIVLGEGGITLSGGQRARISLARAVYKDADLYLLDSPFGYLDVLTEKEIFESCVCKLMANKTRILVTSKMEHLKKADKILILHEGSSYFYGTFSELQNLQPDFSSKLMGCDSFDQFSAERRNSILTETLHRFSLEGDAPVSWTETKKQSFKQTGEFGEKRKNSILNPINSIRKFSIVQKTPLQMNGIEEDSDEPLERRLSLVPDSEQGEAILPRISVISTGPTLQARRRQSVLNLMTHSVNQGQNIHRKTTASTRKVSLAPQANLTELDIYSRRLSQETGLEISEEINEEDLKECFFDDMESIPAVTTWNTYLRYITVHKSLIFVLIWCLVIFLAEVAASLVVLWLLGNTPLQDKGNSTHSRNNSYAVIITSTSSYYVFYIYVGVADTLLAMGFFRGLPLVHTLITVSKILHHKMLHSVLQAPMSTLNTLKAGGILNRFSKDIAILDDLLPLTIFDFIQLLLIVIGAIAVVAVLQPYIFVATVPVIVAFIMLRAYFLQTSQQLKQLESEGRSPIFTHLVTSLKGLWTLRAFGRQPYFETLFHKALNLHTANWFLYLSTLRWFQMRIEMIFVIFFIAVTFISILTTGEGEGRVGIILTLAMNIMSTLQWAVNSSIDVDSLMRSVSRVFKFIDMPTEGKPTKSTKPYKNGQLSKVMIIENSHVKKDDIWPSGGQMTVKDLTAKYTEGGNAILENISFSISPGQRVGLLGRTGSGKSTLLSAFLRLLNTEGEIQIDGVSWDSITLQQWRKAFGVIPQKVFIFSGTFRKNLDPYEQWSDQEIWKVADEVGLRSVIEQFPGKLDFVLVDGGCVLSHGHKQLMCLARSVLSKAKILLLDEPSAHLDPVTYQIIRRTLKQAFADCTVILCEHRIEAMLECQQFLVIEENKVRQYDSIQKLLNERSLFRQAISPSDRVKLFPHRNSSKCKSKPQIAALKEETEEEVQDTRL

| EC50 [1] | EC50 [2] | Maximum % activity (with co-corrector) | Maximum % activity (without co-corrector) | Structure (SMILES) |
| --- | --- | --- | --- | --- |
| 1 to 10 µM | 1 to 10 µM | +++ (≥350) | ++ (≥100 and <200) | COc1ncc(Br)cc1CO[C@H]1[C@H](C(C)(C)C)[C@@H](C(=O)O)N(C(=O)OC(C)C)[C@H]1c1ccccc1F [Example 76, (2S,3R,4S,5S)-4-[(5-bromo-2-methoxypyridin-3-yl)methoxy]-3-tert-butyl-5-(2-fluorophenyl)-1-{[(propan-2-yl)oxy]carbonyl}pyrrolidine-2-carboxylic acid] |
| 1 to 10 µM | 1 to 10 µM | +++ (≥350) | ++ (≥100 and <200) | COc1ncc(C2CCC2)cc1CO[C@H]1[C@H](C(C)(C)C)[C@@H](C(=O)O)N(C(=O)OC(C)C)[C@H]1c1ccccc1F [Example 77, (2S,3R,4S,5S)-3-tert-butyl-4-[(5-cyclobutyl-2-methoxypyridin-3-yl)methoxy]-5-(2-fluorophenyl)-1-{[(propan-2-yl)oxy]carbonyl}pyrrolidine-2-carboxylic acid] |
| 1 to 10 µM | 1 to 10 µM | +++ (≥350) | ++ (≥100 and <200) | COc1ccc(C(F)(F)F)cc1CO[C@H]1[C@H](C(C)(C)C)[C@@H](C(=O)O)N(C(=O)OC(C)C)[C@H]1c1cccnc1OC(C)C [Example 78, (2S,3R,4S,5S)-3-tert-butyl-4-{[2-methoxy-5-(trifluoromethyl)phenyl]methoxy}-1-{[(propan-2-yl)oxy]carbonyl}-5-{2-[(propan-2-yl)oxy]pyridin-3-yl}pyrrolidine-2-carboxylic acid] |
| 1 to 10 µM | 1 to 10 µM | ++ (≥150 and <350) | + (<100) | COc1ncc(C(F)(F)F)cc1CO[C@H]1[C@H](C(C)(C)C)[C@@H](C(=O)O)N(C(=O)OC(C)C)[C@H]1c1cccc(Cl)c1 [Example 79, (2S,3R,4S,5S)-3-tert-butyl-5-(3-chlorophenyl)-4-{[2-methoxy-5-(trifluoromethyl)pyridin-3-yl]methoxy}-1-{[(propan-2-yl)oxy]carbonyl}pyrrolidine-2-carboxylic acid] |
| 1 to 10 µM | 1 to 10 µM | ++ (≥150 and <350) | + (<100) | COc1ncc(C(C)(C)C)cc1CO[C@H]1[C@H](C(C)(C)C)[C@@H](C(=O)O)N(C(=O)OC(C)C)[C@H]1c1cccc(Cl)c1 [Example 80, (2S,3R,4S,5S)-3-tert-butyl-4-[(5-tert-butyl-2-methoxypyridin-3-yl)methoxy]-5-(3-chlorophenyl)-1-{[(propan-2-yl)oxy]carbonyl}pyrrolidine-2-carboxylic acid] |
| 1 to 10 µM | 1 to 10 µM | ++ (≥150 and <350) | + (<100) | COc1ncc(N2CCCCC2)cc1CO[C@H]1[C@H](C(C)(C)C)[C@@H](C(=O)O)N(C(=O)OC(C)C)[C@H]1c1ccccc1 [Example 81, (2S,3R,4S,5S)-3-tert-butyl-4-{[2-methoxy-5-(piperidin-1-yl)pyridin-3-yl]methoxy}-5-phenyl-1-{[(propan-2-yl)oxy]carbonyl}pyrrolidine-2-carboxylic acid] |
| 1 to 10 µM | 1 to 10 µM | ++ (≥150 and <350) | + (<100) | COc1ncc(N2CCCC2)cc1CO[C@H]1[C@H](C(C)(C)C)[C@@H](C(=O)O)N(C(=O)OC(C)C)[C@H]1c1ccccc1 [Example 82, (2S,3R,4S,5S)-3-tert-butyl-4-{[2-methoxy-5-(pyrrolidin-1-yl)pyridin-3-yl]methoxy}-5-phenyl-1-{[(propan-2-yl)oxy]carbonyl}pyrrolidine-2-carboxylic acid] |
| 1 to 10 µM | < 1 µM | +++ (≥350) | ++ (≥100 and <200) | COc1ncc(C(F)(F)F)cc1CO[C@H]1[C@H](C(C)(C)C)[C@@H](C(=O)O)N(C(=O)OC(C)C)[C@H]1c1ccccc1C [Example 83, (2S,3R,4S,5S)-3-tert-butyl-4-{[2-methoxy-5-(trifluoromethyl)pyridin-3-yl]methoxy}-5-(2-methylphenyl)-1-{[(propan-2-yl)oxy]carbonyl}pyrrolidine-2-carboxylic acid] |
| 1 to 10 µM | 1 to 10 µM | ++ (≥150 and <350) | + (<100) | COc1ncc(N2CC(F)(F)C2)cc1CO[C@H]1[C@H](C(C)(C)C)[C@@H](C(=O)O)N(C(=O)OC(C)C)[C@H]1c1ccccc1 [Example 84, (2S,3R,4S,5S)-3-tert-butyl-4-{[5-(3,3-difluoroazetidin-1-yl)-2-methoxypyridin-3-yl]methoxy}-5-phenyl-1-{[(propan-2-yl)oxy]carbonyl}pyrrolidine-2-carboxylic acid] |

The remaining lines, values behind:

| Structure (SMILES) | EC50 [1] | EC50 [2] | Maximum % activity (with co-corrector) | Maximum % activity (without co-corrector) |
| --- | --- | --- | --- | --- |
| COc1ncc(-c2ccc(F)cc2F)cc1CO[C@H]1[C@H](C(C)(C)C)[C@@H](C(=O)O)N(C(=O)OC(C)C)[C@H]1c1ccccc1 [Example 68, (2S,3R,4S,5S)-3-tert-butyl-4-{[5-(2,4-difluorophenyl)-2-methoxypyridin-3-yl]methoxy}-5-phenyl-1-{[(propan-2-yl)oxy]carbonyl}pyrrolidine-2-carboxylic acid] | < 1 µM | 1 to 10 µM | +++ (≥350) | + (<100) |
| COc1ncc(C2=CCOCC2)cc1CO[C@H]1[C@H](C(C)(C)C)[C@@H](C(=O)O)N(C(=O)OC(C)C)[C@H]1c1ccccc1 [Example 69, (2S,3R,4S,5S)-3-tert-butyl-4-{[5-(3,6-dihydro-2H-pyran-4-yl)-2-methoxypyridin-3-yl]methoxy}-5-phenyl-1-{[(propan-2-yl)oxy]carbonyl}pyrrolidine-2-carboxylic acid] | 1 to 10 µM | 1 to 10 µM | ++ (≥150 and <350) | + (<100) |
| COc1cccc(-c2cnc(OC)c(CO[C@H]3[C@H](C(C)(C)C)[C@@H](C(=O)O)N(C(=O)OC(C)C)[C@H]3c3ccccc3)c2)c1 [Example 70, (2S,3R,4S,5S)-3-tert-butyl-4-{[2-methoxy-5-(3-methoxyphenyl)pyridin-3-yl]methoxy}-5-phenyl-1-{[(propan-2-yl)oxy]carbonyl}pyrrolidine-2-carboxylic acid] | 1 to 10 µM | 1 to 10 µM | ++ (≥150 and <350) | + (<100) |
| COc1ncc(-c2ccc(C)cc2)cc1CO[C@H]1[C@H](C(C)(C)C)[C@@H](C(=O)O)N(C(=O)OC(C)C)[C@H]1c1ccccc1 [Example 71, (2S,3R,4S,5S)-3-tert-butyl-4-{[2-methoxy-5-(4-methylphenyl)pyridin-3-yl]methoxy}-5-phenyl-1-{[(propan-2-yl)oxy]carbonyl}pyrrolidine-2-carboxylic acid] | 1 to 10 µM | 1 to 10 µM | +++ (≥350) | + (<100) |
| COc1nc(C(C)(C)C)ccc1CO[C@H]1[C@H](C(C)(C)C)[C@@H](C(=O)O)N(C(=O)OC(C)C)[C@H]1c1ccccc1 [Example 72, (2S,3R,4S,5S)-3-tert-butyl-4-[(6-tert-butyl-2-methoxypyridin-3-yl)methoxy]-5-phenyl-1-{[(propan-2-yl)oxy]carbonyl}pyrrolidine-2-carboxylic acid] | 1 to 10 µM | 1 to 10 µM | +++ (≥350) | + (<100) |
| COc1ncc(C(F)(F)F)cc1CO[C@H]1[C@H](C(C)(C)C)[C@@H](C(=O)O)N(C(=O)OC(C)C)[C@H]1c1ccccc1F [Example 73, (2S,3R,4S,5S)-3-tert-butyl-5-(2-fluorophenyl)-4-{[2-methoxy-5-(trifluoromethyl)pyridin-3-yl]methoxy}-1-{[(propan-2-yl)oxy]carbonyl}pyrrolidine-2-carboxylic acid] | 1 to 10 µM | < 1 µM | +++ (≥350) | ++ (≥100 and <200) |
| COc1ncc(C(C)(C)C)cc1CO[C@H]1[C@H](C(C)(C)C)[C@@H](C(=O)O)N(C(=O)OC(C)C)[C@H]1c1ccccc1F [Example 74, (2S,3R,4S,5S)-3-tert-butyl-4-[(5-tert-butyl-2-methoxypyridin-3-yl)methoxy]-5-(2-fluorophenyl)-1-{[(propan-2-yl)oxy]carbonyl}pyrrolidine-2-carboxylic acid] | 1 to 10 µM | 1 to 10 µM | +++ (≥350) | ++ (≥100 and <200) |
| COc1ncc(C(C)(C)C)cc1CO[C@@H]1[C@H](C(C)(C)C)[C@@H](C(=O)O)N(C(=O)OC(C)C)[C@H]1c1ccccc1F [Example 75, (2S,3R,4R,5S)-3-tert-butyl-4-[(5-tert-butyl-2-methoxypyridin-3-yl)methoxy]-5-(2-fluorophenyl)-1-{[(propan-2-yl)oxy]carbonyl}pyrrolidine-2-carboxylic acid] | > 10 µM | > 10 µM | + (<150) | + (<100) |
